In general, EC50 refers to the midpoint of the concentration-response curve. The low end stands for a more potent agent, the high end for a less potent agent.

Assay [1] has as its target T1, rat vas deferens P2X receptor (Rattus norvegicus, UniProt P47824).
T1 construct: cRNA in Xenopus oocytes; stably transfected CHO cells
T1 sequence (P47824 1-399): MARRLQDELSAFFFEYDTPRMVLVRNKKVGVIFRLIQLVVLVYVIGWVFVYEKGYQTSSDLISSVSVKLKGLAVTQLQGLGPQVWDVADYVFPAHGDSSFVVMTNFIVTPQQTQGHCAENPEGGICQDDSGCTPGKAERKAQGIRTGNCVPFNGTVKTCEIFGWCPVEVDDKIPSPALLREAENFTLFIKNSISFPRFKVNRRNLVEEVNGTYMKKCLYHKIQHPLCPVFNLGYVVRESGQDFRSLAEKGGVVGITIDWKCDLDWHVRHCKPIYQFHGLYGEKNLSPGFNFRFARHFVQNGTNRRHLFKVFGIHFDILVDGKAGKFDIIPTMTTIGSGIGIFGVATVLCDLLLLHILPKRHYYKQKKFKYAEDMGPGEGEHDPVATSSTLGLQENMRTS
The assay can be described thus: electrophysiological recording in CHO cells stably transfected with rat vas deferens P2X receptor. The note with it: up to 30 μM. It counts as cell-based. The text has this: CHO cells were stably transfected by a method used for other ion channels (Claudio, Meth. Enzymol. 207 391-408 (1992)). Transfection was confirmed by a) electro-physiological recording and b) radioligand binding. […] [^3 H]αβmethyleneATP binding was more than 600 cpm per million transfected cells with less than 80 cpm nonspecific binding.

The test system of assay [2] is P2X-purinoceptor. The note with it: cited from earlier work.
Assay [3] deals with T2, rat superior cervical ganglion P2X receptor (clone 3) (Rattus norvegicus, UniProt P51577).
T2 construct: The insert appeared to be a full length cDNA; expressed in transfected cells; host or cells: HEK293 cells transfected with pcDNA3 construct p464 (also oocytes injected with in vitro transcribed RNA)
T2 sequence (P51577 1-388): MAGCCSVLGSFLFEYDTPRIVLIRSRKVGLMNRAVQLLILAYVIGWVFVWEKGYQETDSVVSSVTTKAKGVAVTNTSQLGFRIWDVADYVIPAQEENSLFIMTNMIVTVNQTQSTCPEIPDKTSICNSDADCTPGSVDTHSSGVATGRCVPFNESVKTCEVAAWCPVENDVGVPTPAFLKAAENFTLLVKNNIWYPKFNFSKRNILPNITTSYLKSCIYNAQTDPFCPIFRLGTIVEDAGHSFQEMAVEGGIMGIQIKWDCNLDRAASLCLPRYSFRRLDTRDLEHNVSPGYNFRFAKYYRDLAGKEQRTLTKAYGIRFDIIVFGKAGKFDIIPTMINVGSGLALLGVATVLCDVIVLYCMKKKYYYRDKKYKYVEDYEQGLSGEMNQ
The assay can be described thus: functional properties of cloned P2X receptors (electrical recordings): clone 3. It counts as cell-based.

Assay [4] deals with T3, PC12 P2X receptor (Rattus norvegicus, UniProt P49653).
T3 construct: host or cells: HEK293 cells (oocytes are also named for the functional characterisation of clone 3)
T3 sequence (P49653 1-472): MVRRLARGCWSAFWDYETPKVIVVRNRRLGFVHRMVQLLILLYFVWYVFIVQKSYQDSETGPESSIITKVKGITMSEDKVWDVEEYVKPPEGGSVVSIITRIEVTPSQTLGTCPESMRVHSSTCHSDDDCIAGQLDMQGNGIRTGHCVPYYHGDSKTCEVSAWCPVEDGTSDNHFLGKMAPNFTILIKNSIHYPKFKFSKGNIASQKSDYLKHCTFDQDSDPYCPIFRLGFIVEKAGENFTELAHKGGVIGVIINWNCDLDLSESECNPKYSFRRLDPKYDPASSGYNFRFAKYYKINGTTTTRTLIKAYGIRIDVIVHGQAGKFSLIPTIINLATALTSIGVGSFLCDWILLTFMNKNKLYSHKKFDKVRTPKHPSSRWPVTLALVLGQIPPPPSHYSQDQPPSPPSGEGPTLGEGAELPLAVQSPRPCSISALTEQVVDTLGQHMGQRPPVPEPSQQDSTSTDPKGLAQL
The assay can be described thus: functional properties of cloned P2X receptors (electrical recordings): PC12. Type of assay: cell-based. How it is done: HEK 293 cells were transfected by the lipofectin method (Felgner et al., Proc. Nat'l. Acad. Sci. USA 84 7413-7417 (1987)) with P2X -plasmid. DNA concentration used was 1 mg/2 ml medium placed into a 35 mm petri dish containing four 11 mm diameter coverslips on which HEK cells were placed at 10,000 cells per coverslip. […] Currents were recorded from HEK 293 cells using whole-cell recording methods and the AXOPATCH™ 200 amplifier (Axon Instruments); patch pipettes (5 M.OMEGA.) contained (mM) Cs or K aspartate 140, NaCl 5, EGTA 11, HEPES 5. The external solution was (mM) NaCl 150, KCl2, CaCl2 2, MgCl2 1, HEPES 5 and glucose 11; the pH and osmolarity of both solutions were maintained at 7.3 and 305 mosmol/l respectively. All recordings performed at room temperature. Data acquisition and analysis were performed using pCLAMP™ and AXOGRAPH™ software (Axon Instruments). […] The pH and osmolarity of the solutions were 7.4 and 295 mosmol/l respectively. For single channel measurements, a […]™ 500 amplifier and outside-out recording methods were used (Adelman et al., Neuron 9 209-216 (1992)). Wax-coated patch pipettes (5-10 M.OMEGA.) contained (mM) K-gluconate 115, HEPES 5, BAPTA 5 and MgCl2 0.5, external solution was 96 mM NaCl, 2 mM KCl, 1.8 mM CaCl2, 1 mM MgCl2, 5 mM Hepes pH 7.6, and 5 mM sodium pyruvate.
The functional characterisation of the clone illustrated in FIG. 2 (referred to herein as clone 3) was carried out by electrical recordings from transfected HEK293 cells and from oocytes injected with the in vitro transcribed RNA, as described in Example 4 for the rat vas deferens P2X receptor. Table A summarizes the main properties of clone 3 as compared to those of rat vas/human bladder cDNA clone, and the PC12 cDNA clone (provided by David Julius and Tony Brake of the University of California at San Francisco).

For assay [5], the target named is T1, rat vas deferens P2X receptor. The assay can be described thus: ATP-evoked currents, rat vas deferens P2X receptor clone in oocytes. It counts as cell-based. The note with it: ATP (>1 μM), second application 10 mins after the first. On the procedure: 50 nl (200 ng) of RNA was injected into defolliculated Xenopus oocytes. After incubation for 2-6 days at 18° C., the oocytes were assayed for ATP-evoked currents by a two-electrode voltage clamp ([…]™); one electrode is to hold the voltage constant (at -100 mV), and the other is to measure the currents. […] Microelectrodes (0.5-2 M.OMEGA.) were filled with 3M KCl.

Consider `Nc1ncnc2c1ncn2[C@@H]1O[C@H](COP(=O)([O-])OP(=O)([O-])OP(=O)([O-])[O-])[C@@H](O)[C@H]1O.[Mg+2].[Mg+2]` [ATP, adenosine 5'-triphosphate magnesium salt], for which the “rapidly desensitising inward currents, CHO cells responding” value in assay [1] is given as “rapidly desensitising inward currents in 14 of 14 CHO cells”. Also, the “agonist potency order in whole tissue studies” value in assay [2] was “α,β,-meATP >>2MeSATP≥ATP”. Moreover, the EC50 was determined as 11 µM in assay [3] and 8 µM in assay [4]. Further, the “decline of currents (desensitisation) during application” value in assay [3] (applications of several seconds) was “little or no decline during applications of several seconds”. In assay [5], the “inward current evoked by second application, of the initial peak amplitude” value is ~ 50%.

Source of the values: patent publication US5985603A, “P2x receptor DNA and protein sequence” (Glaxo Group Limited, priority 1994, dated 1999).
